# Results: patent publication US8187822B2, “Methods to identify modulators” (Givaudan S.A., priority 2007, dated 2012)
# “Also recorded” adds a separate entry of the source. Like-named read-outs stand apart in the source and are kept apart here.
# How the values were obtained:
# [1] = target: T1, TAS2R44 (Homo sapiens, UniProt P59538, L162M); experiment: Fluo-4 calcium assay, HEK293T cells expressing Gα16-gustducin44 and TAS2R44; type: cell-based; settings: for Sucralose + test cpd A ΔF/F0: 25 μM test cpd A; for Sucralose + test cpd A ΔF/F0 / Sucralose ΔF/F0: TAS2R44 expressing cells; for TAS2R44 ΔF/F0: 0.02% DMSO
# T1 construct: RSS tag (first 45 amino acids of rat somatostatin receptor subtype 3, plus EcoRI site) (N); expressed in transfected cells
# T1 sequence (P59538 with tags, fused parts or gaps L162M): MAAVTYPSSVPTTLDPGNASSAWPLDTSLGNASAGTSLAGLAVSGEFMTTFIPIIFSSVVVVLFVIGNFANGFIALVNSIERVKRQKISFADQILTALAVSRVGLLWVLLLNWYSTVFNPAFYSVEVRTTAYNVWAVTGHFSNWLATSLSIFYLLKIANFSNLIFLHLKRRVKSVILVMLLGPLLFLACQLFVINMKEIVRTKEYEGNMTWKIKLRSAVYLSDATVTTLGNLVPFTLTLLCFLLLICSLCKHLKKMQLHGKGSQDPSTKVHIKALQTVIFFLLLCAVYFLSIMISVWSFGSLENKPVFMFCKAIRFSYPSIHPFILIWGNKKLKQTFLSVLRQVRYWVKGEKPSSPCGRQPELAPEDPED
# Description: Cell lines that stably expresses a SABR (TAS2R44, TAS2R1, TAS2R10) was generated by transfecting pcDNA3.1Zeo-SABR into HEK293T/Gα16-gustducin 44 cells (both formed as described in example 1). The host cell line HEK-293T is commercially available from the American Tissue Culture Collection (ATCC), ATCC®# CRL-11268.
# The expression of TAS2R44 was evaluated by testing for the presence of a functional response to the known TAS2R44 agonist saccharin (as described in WO 2004/029087) in addition to sucralose, which was determined via automated calcium imaging on the FLIPR-TETRA™ (Molecular Devices, Sunnyvale, Calif., US) as described in example 3. One clone was selected resulting in the HEK293T/Gα16-gustducin 44/TAS2R44 cell line.
# Fluo-4AM (Invitrogen, Carlsbad, Calif., US) is a fluorescent indicator of intracellular calcium dynamics (change in concentration) and allows monitoring changes in the calcium concentration, particularly an increase in response to receptor activation occurring after agonist exposure.
# (§1) At day 0, the HEK293T cell line expressing Gα16-gustducin44 and a TAS2R bitter taste receptor formed as described in examples 2b or 2c was seeded in antibiotic-free growth medium (standard DMEM with 10% (v/v) heat-inactivated fetal bovine serum, 2 mM L-glutamine[…]) into black wall/clear bottom 96-well plates, coated with poly(ethylenimine) (0.005% v/v) at a concentration of 15,000 cells per well and incubated for 48 hours in humidified atmosphere (37° C., 5% CO2).
# (§2) At the time of the assay, the growth medium was discarded and the cells were in humidified atmosphere (37° C., 5% CO2) for 1 hour with 50 μl of loading buffer consisting of 1.5 μM Fluo-4 AM and […] probenicid (Sigma-Aldrich, St. Louis, Mo., US) in DMEM.
# (§3) Afterwards, the 96-well plate was washed 5 times with 100 μl of assay buffer (130 mM NaCl, 5 mM KCl, 10 mM HEPES, 2 mM CaCl2, and 5 mM dextrose, pH 7.4) per well, using an automated plate washer (BioTek). The plate was further incubated for 30 minutes at room temperature in the dark to allow for complete de-esterification of the Fluo-4. Afterwards the plate was washed 5 times with 100 μl of assay buffer per well, and reconstituted with 100 μl of assay buffer per well.
# (§4) For assay reading, the plate was placed in a Fluorometric Imaging Plate Reader (FLIPR) (FLIPR-TETRA™, Molecular Devices, Sunnyvale, Calif., US), and receptor activation was initiated by addition of 100 μl of a twofold concentrated agonist stock solution (to give the desired agonist end concentration when added to the 100 microliter assay buffer volume), which was prepared in assay buffer.
# (§5) Fluorescence was continuously monitored for 20 seconds to give a signal baseline (averaged to give F0) prior to agonist addition and for 120 seconds after agonist addition. The change in signal divided by F0 gives ΔF/F0 indicated in the table, with ΔF being the maximum signal occurring within the 120 seconds minus the minimum signal (occurring within the 120 seconds after agonist addition.
# All data was collected from at least two independent experiments each carried out in triplicate.
# A concentration-response analysis was performed and EC50 values were calculated by nonlinear regression using the function f(x)=(a−d)/(1+(x/C)^nh)+d; with a=minimum signal, d=maximum signal, nh=hill coefficient, C=EC50, and x=agonist concentration. EC50 is the molar concentration of an agonist which produces 50% of the maximum possible effective response for that agonist.
# The obtained calcium signals were corrected for the response of cells expressing only the G Protein α subunit (Gα16-gustducin44) and normalized to the fluorescence of cells prior to the stimulus using ΔF/F0 (Fmax−Fmin/F0). […]
# [2] = system: cells expressing only Gα16gustducin44 but no TAS2 receptor; experiment: Fluo-4 calcium assay, negative control cells without bitter receptor; type: cell-based; settings: for Neg. Control ΔF/F0: 0.02% DMSO
# Description: HEK293T/Gα16-gustducin 44 cells were used; they are formed as described in WO 2004/055048. The host cell line HEK-293T is commercially available from the American Tissue Culture Collection (ATCC), ATCC®# CRL-11268
# as §1, §2, §3, §4, §5
# The obtained calcium signals were corrected for the response of cells expressing only the G Protein α subunit (Gα16-gustducin44) and normalized to the fluorescence of cells prior to the stimulus using ΔF/F0 (Fmax−Fmin/F0).
# To confirm that the cell line formed in example 2c stably expresses the bitter taste receptor TAS2R44, a concentration-response curve for saccharin, a known agonist of TAS2R44, was generated. […] The standard deviation (+/−STD) is also indicated.
# As a negative control to determine unspecific signals, each of the applied concentrations of sucralose was applied to cells expressing only Gα16gustducin44.
# As a negative control, each agonist and each agonist with the antagonist/test compound (test cpd A) is applied to cells expressing only Gal 6gustducin44 but no TAS2 receptor (see results in table 7 herein below).
compound,measurement,setting,value
"CC1=CCC(C/C=C/C(=O)O)C1(C)C (stereo not shown) [test cpd A, (E)-4-(2,2,3-trimethylcyclopent-3-enyl)but-2-enoic acid]",Sucralose + test cpd A ΔF/F0,[1]; sucralose 0.3906 mM,0.011
same,Sucralose + test cpd A ΔF/F0,[1]; sucralose 0.7813 mM,0.010
same,Sucralose + test cpd A ΔF/F0,[1]; sucralose 1.5625 mM,0.016
same,Sucralose + test cpd A ΔF/F0,[1]; sucralose 3.1250 mM,0.005
same,Sucralose + test cpd A ΔF/F0,[1]; sucralose 6.2500 mM,0.000
same,Sucralose + test cpd A ΔF/F0,[1]; sucralose 12.5000 mM,−0.015
same,Sucralose + test cpd A ΔF/F0,[1]; sucralose 25.0000 mM,−0.035
same,Sucralose + test cpd A ΔF/F0,[1]; sucralose 50.0000 mM,−0.025
same,Sucralose + test cpd A ΔF/F0,[1]; sucralose 100.0000 mM,0.107
same,"effect on the response of TAS2R44 to sucralose, in words",[1]; test compound at 25 μM,inhibited; also recorded: inhibit the response of a SABTR to sucralose
same,Sucralose + test cpd A ΔF/F0,"[2]; 25 μM test cpd A, sucralose 100.0000 mM, cells without bitter receptor",−0.175
"OC[C@H]1O[C@H](O[C@]2(CCl)O[C@H](CCl)[C@@H](O)[C@@H]2O)[C@H](O)[C@@H](O)[C@H]1Cl [Sucralose, sucralose]",EC50,"[1]; agonist alone, stable TAS2R44 cell line (Examples 4, 5), read-out: calculated EC50 value",16.7 ± 1.01 mM
same,EC50,"[1]; agonist sucralose alone, TAS2R44 (Example 9), read-out: EC50 Agonist",36.3 ± 5.7 mM
same,"agonist activity at TAS2R44 (calcium signaling), in words",[1]; cells stably expressing human TAS2R44,significant increase in calcium signaling
same,TAS2R44 ΔF/F0,[1]; sucralose 0.3906 mM,0.023
same,TAS2R44 ΔF/F0,[1]; sucralose 0.7813 mM,0.025
same,TAS2R44 ΔF/F0,[1]; sucralose 1.5625 mM,0.026
same,TAS2R44 ΔF/F0,[1]; sucralose 3.1250 mM,0.043
same,TAS2R44 ΔF/F0,[1]; sucralose 6.2500 mM,0.059
same,TAS2R44 ΔF/F0,[1]; sucralose 12.5000 mM,0.109
same,TAS2R44 ΔF/F0,[1]; sucralose 25.0000 mM,0.197
same,TAS2R44 ΔF/F0,[1]; sucralose 50.0000 mM,0.256
same,TAS2R44 ΔF/F0,[1]; sucralose 100.0000 mM,0.260
same,Sucralose ΔF/F0,[1]; sucralose alone 0.3906 mM (0.02% DMSO control of Example 9),0.046
same,Sucralose ΔF/F0,[1]; sucralose alone 0.7813 mM (0.02% DMSO control of Example 9),0.038
same,Sucralose ΔF/F0,[1]; sucralose alone 1.5625 mM (0.02% DMSO control of Example 9),0.042
same,Sucralose ΔF/F0,[1]; sucralose alone 3.1250 mM (0.02% DMSO control of Example 9),0.030
same,Sucralose ΔF/F0,[1]; sucralose alone 6.2500 mM (0.02% DMSO control of Example 9),0.027
same,Sucralose ΔF/F0,[1]; sucralose alone 12.5000 mM (0.02% DMSO control of Example 9),0.051
same,Sucralose ΔF/F0,[1]; sucralose alone 25.0000 mM (0.02% DMSO control of Example 9),0.110
same,Sucralose ΔF/F0,[1]; sucralose alone 50.0000 mM (0.02% DMSO control of Example 9),0.192
same,Sucralose ΔF/F0,[1]; sucralose alone 100.0000 mM (0.02% DMSO control of Example 9),0.352
same,"signal in negative control, in words",[2]; host cells expressing only Gα16-gustducin44,No significant change
same,Neg. Control ΔF/F0,[2]; sucralose 0.3906 mM,0.014
same,Neg. Control ΔF/F0,[2]; sucralose 0.7813 mM,0.014
same,Neg. Control ΔF/F0,[2]; sucralose 1.5625 mM,0.017
same,Neg. Control ΔF/F0,[2]; sucralose 3.1250 mM,0.012
same,Neg. Control ΔF/F0,[2]; sucralose 6.2500 mM,0.017
same,Neg. Control ΔF/F0,[2]; sucralose 12.5000 mM,0.016
same,Neg. Control ΔF/F0,[2]; sucralose 25.0000 mM,0.016
same,Neg. Control ΔF/F0,[2]; sucralose 50.0000 mM,0.018
same,Neg. Control ΔF/F0,[2]; sucralose 100.0000 mM,0.021
same,Sucralose ΔF/F0,"[2]; sucralose alone 100.0000 mM, cells without bitter receptor (Example 9)",−0.179
